# Legend:
# Assay in all cases: FISP disc diffusion assay
# Format in all cases: cell-based
# Set-up in all cases: key: F: clear zone, fuzzy edges; S: slightly hazy zone (some growth observed throughout zone); H: hazy zone (considerable growth observed throughout zone); V: very hazy zone (zone of inhibition is barely discernable); R: zone displays a ring of resistant growth; no qualifier: clear zone throughout, sharp edges
# Conditions in all cases: 250 μg/ml in CH2Cl2
# [1] = tested on: Phoma sp.
# Text: (§1) The FISP assay employs disc diffusion susceptibility testing methods to generate a spectrum of activity against a panel of representative yeasts, filamentous fungi and bacteria.
# (§2) The filamentous fungi used in the assay were Penicillium sp. Aspergillus niger, Trichoderma sp., Phoma sp., Trichoderma lignorum, Fusarium oxysporum, Ustilago maydis, Ceratocystis ulmi, Alternaria soloni, Verticillium serrae, Botrytis allii, Scopulariopsis communis, Cephalosporium sp., Cercospora beticola, Rhizomucor miehei, Aspergillus flavus and Aspergillus fumigatus.
# (§3) For carrying out the assay, seeded assay plates are prepared in the following manner according to the type of assay strain.
# (§4) Inocula for filamentous fungi are prepared by scraping the surface of stock plates maintained on potato dextrose agar with a moistened sterile dacron swab. The spores and mycelia are then suspended in 10 milliliters of sterile potato dextrose broth and adjusted to 65 percent transmission at 660 nm.
# (§5) Assay plates for the yeasts and filamentous fungi are prepared by diluting the inoculum into appropriate molten agar medium, cooled to 45° C. to obtain a final concentration of 4 percent.
# (§6) The seeded agar media thus prepared are dispensed into petri dishes for assays (11 ml per dish).
# (§7) The samples to be tested for production of antifungal agent are applied to 6.2 mm filter paper discs (25 μl/disc) and air dried at 24° C. When the sample to be tested is crude broth, it may be centrifuged prior to application. The discs bearing the material to be tested are then applied employing sterile conditions to the seeded assay plates. The assay plates are then incubated at either 28° C. or 37° C. for 24 hours. In one of the assays for Bacillus subtilis, the sample is applied to a disc previously impregnated with 4M potassium chloride at 25 μl/disc and then air dried.
# (§8) Following incubation, the inhibition zones are measured and recorded. The measurements are made from the extreme edge where growth differs from the background zone. The zones are noted as to appearance as fuzzy edge and clear center, hazy throughout, slightly hazy, very hazy or ringed.
# (§9) FISP data is reported as the diameter (in mm.) of the zone of inhibition of growth in agar diffusion assays. The zone is determined by measuring growth that differs from the background lawn. A qualifier is also added to describe the zone quality as listed below: no qualifier: clear zone throughout, sharp edges
# [2] = tested on: Aspergillus flavus
# Text: as §1, §2, §3, §4, §5, §6, §7, §8, §9
# [3] = tested on: Alternaria solani
# Text: as §1, §2, §3, §4, §5, §6, §7, §8, §9
# [4] = tested on: Ustilago maydis
# Text: as §1, §2, §3, §4, §5, §6, §7, §8, §9
# [5] = tested on: Trichoderma sp.
# Text: as §1, §2, §3, §4, §5, §6, §7, §8, §9
# [6] = tested on: Cryptococcus albidus
# Text: as §1
# (§10) The yeasts employed in the assay are Saccharomyces cerevisiae, Candida albicans, Candida tropicalis, Candida rugosa, Brettanomyces bruxellensis, Torulospora hansenii, Candida guilliermondi, Candida pseudotropicalis, Torulopsis glabrata, Cryptococcus albidus, Cryptococcus laurentii and Kluyveromyces fragilis.
# as §3
# (§11) Inocula for yeasts and bacterial strains are prepared from overnight broth cultures then diluted into potato dextrose agar to a final concentration of either 40 percent or 70 percent transmission at 660 nm.
# as §5, §6, §7, §8, §9
# [7] = tested on: Cryptococcus laurentii
# Text: as §1, §10, §3, §11, §5, §6, §7, §8, §9
# [8] = tested on: Torulospora hansenii
# Text: as §1, §10, §3, §11, §5, §6, §7, §8, §9
# [9] = tested on: Candida rugosa
# Text: as §1, §10, §3, §11, §5, §6, §7, §8, §9
# [10] = tested on: Brettanomyces bruxellensis
# Text: as §1, §10, §3, §11, §5, §6, §7, §8, §9
# [11] = tested on: Candida tropicalis
# Text: as §1, §10, §3, §11, §5, §6, §7, §8, §9
# [12] = tested on: Candida pseudotropicalis
# Text: as §1, §10, §3, §11, §5, §6, §7, §8, §9
# [13] = tested on: Kluyveromyces fragilis
# Text: as §1, §10, §3, §11, §5, §6, §7, §8, §9
structure (smiles),measurement,setting,value
CC(/C=C/C=C(\C)C(O)C(C)C(=O)O[C@H]1C[C@H](C)C=C2C=C[C@@]3(C)O[C@@H](O)CC(=O)[C@]3(C)[C@H]21)=C\C=C\C(=O)O (stereo partly shown) [Compound A],zone quality qualifier,[1],S
same,zone quality qualifier,[2],H
same,zone quality qualifier,[3],F
same,zone quality qualifier,[4],V
same,zone quality qualifier,[5],S
same,zone quality qualifier,[6],V
same,zone quality qualifier,[7],H and V
same,zone quality qualifier,[8],H
same,zone quality qualifier,[9],S
same,zone quality qualifier,[10],S
same,zone quality qualifier,[11],S
same,zone quality qualifier,[12],V
same,zone quality qualifier,[13],V

# From US5244795A, “Processes for preparing cholesterol lowering compounds” (Merck & Co., Inc., priority 1992, dated 1993)
